Results taken from ChEMBL document CHEMBL3885881, “DrugMatrix”.

Species: Rattus norvegicus
Assay: DrugMatrix - Regimen: Daily Repeat
Format: toxicity, organism-based, Sprague-Dawley
Design: regimen Daily Repeat, gender Male, age 6-8 weeks
Conditions: in vivo, […]; for NEUTROPHIL / PLATELET COUNT / ABSOLUTE BASOPHIL / ABSOLUTE EOSINOPHIL / ABSOLUTE LYMPHOCYTE / ABSOLUTE MONOCYTE / ABSOLUTE SEGMENTED NEUTROPHIL / BASOPHIL / EOSINOPHIL / ERYTHROCYTE COUNT / HEMATOCRIT / HEMOGLOBIN / LEUKOCYTE COUNT / LYMPHOCYTE / MEAN CORPUSCULAR HEMOGLOBIN / MEAN CORPUSCULAR HEMOGLOBIN CONCENTRATION / MEAN CORPUSCULAR VOLUME / MONOCYTE / NUCLEATED RED BLOOD CELLS: tissue Blood; for ALANINE AMINOTRANSFERASE / ALBUMIN / ALKALINE PHOSPHATASE / ASPARTATE AMINOTRANSFERASE / BLOOD UREA NITROGEN / CHLORIDE / CHOLESTEROL / CREATINE PHOSPHOKINASE / CREATININE / GLUCOSE / LACTATE DEHYDROGENASE / LIPASE / PHOSPHORUS / POTASSIUM / TOTAL BILIRUBIN / TOTAL PROTEIN / URIC ACID / SODIUM / CARBON DIOXIDE: tissue Plasma
[1] = ip, 2 mg/kg, route intraperitoneal, dose level High, time 28 day, vehicle 100 % SALINE
[2] = ip, 2 mg/kg, route intraperitoneal, dose level High, time 14 day, vehicle 100 % SALINE
[3] = po, 66 mg/kg, 72 h, route oral GAVAGE, dose level High, time 3 day
[4] = po, 66 mg/kg, 120 h, route oral GAVAGE, dose level High, time 5 day
[5] = po, 72 h, route oral GAVAGE, dose 6.6 mg/Kg, dose level Low, time 3 day
[6] = po, 120 h, route oral GAVAGE, dose 6.6 mg/Kg, dose level Low, time 5 day

## CADMIUM DICHLORIDE
[1]
  NEUTROPHIL: 24.62%
  PLATELET COUNT: 1656.44 x10E3/uL
  ALANINE AMINOTRANSFERASE: 39.44 u/L
  ALKALINE PHOSPHATASE: 111 u/L
  ASPARTATE AMINOTRANSFERASE: 167.44 u/L
  BLOOD UREA NITROGEN: 19.67 mg/dL
  CHLORIDE: 108.89 MEQ/L
  CHOLESTEROL: 51.67 mg/dL
  CREATININE: 0.44 mg/dL
  GLUCOSE: 106.78 mg/dL
  LACTATE DEHYDROGENASE: 230.56 u/L
  LIPASE: 45.56 u/L
  POTASSIUM: 6.7 MEQ/L
  SODIUM: 151 MEQ/L
  TOTAL BILIRUBIN: 0.28 mg/dL
  TOTAL PROTEIN: 6.61 G/DL
  URIC ACID: 1.71 mg/dL
[2]
  ALANINE AMINOTRANSFERASE: 35.4 u/L
  ALBUMIN: 3.24 G/DL
  ALKALINE PHOSPHATASE: 169.6 u/L
  ASPARTATE AMINOTRANSFERASE: 182.2 u/L
  BLOOD UREA NITROGEN: 23.8 mg/dL
  CHLORIDE: 109.2 MEQ/L
  CHOLESTEROL: 58.2 mg/dL
  CREATINE PHOSPHOKINASE: 323 u/L
  CREATININE: 0.3 mg/dL
  GLUCOSE: 101 mg/dL
  LACTATE DEHYDROGENASE: 321.4 u/L
  LIPASE: 87.6 u/L
  PHOSPHORUS: 10.28 mg/dL
  POTASSIUM: 6.42 MEQ/L
  TOTAL BILIRUBIN: 0.26 mg/dL
  TOTAL PROTEIN: 5.94 G/DL
  URIC ACID: 2.08 mg/dL
[3]
  ABSOLUTE BASOPHIL: 0 CELLS/uL
  ABSOLUTE EOSINOPHIL: 54 CELLS/uL
  ABSOLUTE LYMPHOCYTE: 13921.33 CELLS/uL
  ABSOLUTE MONOCYTE: 108.67 CELLS/uL
  ABSOLUTE SEGMENTED NEUTROPHIL: 2549.33 CELLS/uL
  BASOPHIL: 0%
  EOSINOPHIL: 0.33%
  ERYTHROCYTE COUNT: 5.45 x10E6/uL
  HEMATOCRIT: 35.37%
  HEMOGLOBIN: 13.67 G/DL
  LEUKOCYTE COUNT: 16.63 x10E3/uL
  LYMPHOCYTE: 83.67%
  MEAN CORPUSCULAR HEMOGLOBIN: 25.13 pg
  MEAN CORPUSCULAR HEMOGLOBIN CONCENTRATION: 38.63 G/DL
  MEAN CORPUSCULAR VOLUME: 64.97 fL
  MONOCYTE: 0.67%
  NEUTROPHIL: 15.33%
  NUCLEATED RED BLOOD CELLS: 0 /100WBC
  PLATELET COUNT: 1218.67 x10E3/uL
  ALANINE AMINOTRANSFERASE: 57.67 u/L
  ALBUMIN: 4.1 G/DL
  ALKALINE PHOSPHATASE: 436 u/L
  ASPARTATE AMINOTRANSFERASE: 100 u/L
  BLOOD UREA NITROGEN: 12.33 mg/dL
  CARBON DIOXIDE: 25 mmol/L
  CHOLESTEROL: 60.33 mg/dL
  CREATINE PHOSPHOKINASE: 279.67 u/L
  CREATININE: 0.17 mg/dL
  LACTATE DEHYDROGENASE: 310 u/L
  LIPASE: 11.33 u/L
  PHOSPHORUS: 12.93 mg/dL
  POTASSIUM: 7.2 MEQ/L
  TOTAL BILIRUBIN: 0.2 mg/dL
  TOTAL PROTEIN: 5.77 G/DL
[4]
  ABSOLUTE BASOPHIL: 0 CELLS/uL
  ABSOLUTE EOSINOPHIL: 0 CELLS/uL
  ABSOLUTE LYMPHOCYTE: 13248 CELLS/uL
  ABSOLUTE MONOCYTE: 120 CELLS/uL
  ABSOLUTE SEGMENTED NEUTROPHIL: 1432 CELLS/uL
  BASOPHIL: 0%
  EOSINOPHIL: 0%
  ERYTHROCYTE COUNT: 5.79 x10E6/uL
  HEMATOCRIT: 35.4%
  HEMOGLOBIN: 14.15 G/DL
  LEUKOCYTE COUNT: 14.8 x10E3/uL
  LYMPHOCYTE: 88%
  MEAN CORPUSCULAR HEMOGLOBIN: 24.55 pg
  MEAN CORPUSCULAR HEMOGLOBIN CONCENTRATION: 39.95 G/DL
  MEAN CORPUSCULAR VOLUME: 61.35 fL
  MONOCYTE: 1%
  NEUTROPHIL: 11%
  NUCLEATED RED BLOOD CELLS: 0 /100WBC
  PLATELET COUNT: 1357 x10E3/uL
  ALANINE AMINOTRANSFERASE: 63 u/L
  ALBUMIN: 4.1 G/DL
  ALKALINE PHOSPHATASE: 217.5 u/L
  ASPARTATE AMINOTRANSFERASE: 122 u/L
  BLOOD UREA NITROGEN: 14 mg/dL
  CARBON DIOXIDE: 18.5 mmol/L
  CHLORIDE: 112 MEQ/L
  CHOLESTEROL: 36 mg/dL
  CREATINE PHOSPHOKINASE: 975 u/L
  CREATININE: 0.2 mg/dL
  GLUCOSE: 189 mg/dL
  LACTATE DEHYDROGENASE: 198.5 u/L
  LIPASE: 11.5 u/L
  POTASSIUM: 6.8 MEQ/L
  TOTAL BILIRUBIN: 0.1 mg/dL
  TOTAL PROTEIN: 5.5 G/DL
  URIC ACID: 2.35 mg/dL
[5]
  ABSOLUTE BASOPHIL: 0 CELLS/uL
  ABSOLUTE EOSINOPHIL: 0 CELLS/uL
  ABSOLUTE LYMPHOCYTE: 17172.67 CELLS/uL
  ABSOLUTE MONOCYTE: 193.33 CELLS/uL
  ABSOLUTE SEGMENTED NEUTROPHIL: 1767.33 CELLS/uL
  BASOPHIL: 0%
  EOSINOPHIL: 0%
  ERYTHROCYTE COUNT: 5.25 x10E6/uL
  HEMATOCRIT: 32.93%
  HEMOGLOBIN: 13.07 G/DL
  LEUKOCYTE COUNT: 19.13 x10E3/uL
  MEAN CORPUSCULAR HEMOGLOBIN CONCENTRATION: 39.7 G/DL
  MONOCYTE: 1%
  NUCLEATED RED BLOOD CELLS: 0 /100WBC
  PLATELET COUNT: 1216 x10E3/uL
  ALANINE AMINOTRANSFERASE: 81 u/L
  ALBUMIN: 4 G/DL
  ALKALINE PHOSPHATASE: 508.5 u/L
  ASPARTATE AMINOTRANSFERASE: 91.67 u/L
  BLOOD UREA NITROGEN: 11.67 mg/dL
  CARBON DIOXIDE: 26 mmol/L
  CHOLESTEROL: 77.33 mg/dL
  CREATINE PHOSPHOKINASE: 283.33 u/L
  CREATININE: 0.19 mg/dL
  GLUCOSE: 152.67 mg/dL
  LACTATE DEHYDROGENASE: 195 u/L
  LIPASE: 12.33 u/L
  PHOSPHORUS: 11.57 mg/dL
  POTASSIUM: 6.8 MEQ/L
  TOTAL BILIRUBIN: 0.2 mg/dL
  TOTAL PROTEIN: 5.57 G/DL
  URIC ACID: 1.3 mg/dL
[6]
  ABSOLUTE BASOPHIL: 0 CELLS/uL
  ABSOLUTE EOSINOPHIL: 0 CELLS/uL
  ABSOLUTE LYMPHOCYTE: 4729 CELLS/uL
  ABSOLUTE MONOCYTE: 0 CELLS/uL
  ABSOLUTE SEGMENTED NEUTROPHIL: 237.67 CELLS/uL
  BASOPHIL: 0%
  EOSINOPHIL: 0%
  ERYTHROCYTE COUNT: 5.13 x10E6/uL
  HEMATOCRIT: 30.77%
  HEMOGLOBIN: 12.03 G/DL
  LEUKOCYTE COUNT: 4.97 x10E3/uL
  LYMPHOCYTE: 94.67%
  MEAN CORPUSCULAR HEMOGLOBIN: 23.43 pg
  MEAN CORPUSCULAR HEMOGLOBIN CONCENTRATION: 39.13 G/DL
  MONOCYTE: 0%
  NEUTROPHIL: 5.33%
  NUCLEATED RED BLOOD CELLS: 0 /100WBC
  PLATELET COUNT: 996.33 x10E3/uL
  ALANINE AMINOTRANSFERASE: 78.67 u/L
  ALKALINE PHOSPHATASE: 485.67 u/L
  ASPARTATE AMINOTRANSFERASE: 93 u/L
  BLOOD UREA NITROGEN: 12.67 mg/dL
  CARBON DIOXIDE: 30 mmol/L
  CHOLESTEROL: 72.33 mg/dL
  CREATINE PHOSPHOKINASE: 141.33 u/L
  CREATININE: 0.16 mg/dL
  GLUCOSE: 141.33 mg/dL
  LACTATE DEHYDROGENASE: 102.33 u/L
  LIPASE: 11 u/L
  POTASSIUM: 6.24 MEQ/L
  SODIUM: 149.5 MEQ/L
  TOTAL BILIRUBIN: 0.2 mg/dL
  URIC ACID: 0.97 mg/dL
